Experimental data: article PMC13031153 (Acta Pharmaceutica Sinica. B, 2025)
Where two headings read alike, the source gives them in different places.

What was measured:
hκ-OR = conditions: cited from earlier work
[1] = tested on: WT mδ-OR, mδ-OR-Q190^ECL2H, mδ-OR-Q201^ECL2H, mδ-OR-S45^N-terminalH, mδ-OR-E112^ECL1H; format: cell-based, mouse
mμ-OR mutants = format: cell-based, mouse; conditions: mμ-OR mutations at D^3.32, Y^3.33, V^5.43, I^6.51 (Fig. 5J)
mδ-OR mutants = format: cell-based, mouse
μ-OR over δ-OR = conditions: cited from earlier work
δ/μ^N-terminal Chimera = format: cell-based, mouse
mδ-OR and its variants = assay: Maximal K+ current density evoked by saturating full agonist, mδ-OR variants; format: cell-based, mouse
δ-OR = conditions: cited from earlier work
[2] = molecular target: mδ-OR-K108^2.63N-L125^3.29I-R291^ECL3A (mouse) (UniProt P32300); assay: MST
mδ-OR-R292^ECL3E (mouse) = mδ-OR-R292^ECL3E (mouse) (UniProt P32300); assay: MST
mδ-OR-R291^ECL3A (mouse) = mδ-OR-R291^ECL3A (mouse) (UniProt P32300); assay: MST
[3] = molecular target: mδ-OR-3M-PSA(28–30)-LGG (mouse) (UniProt P32300); assay: MST
mδ-OR-K108^2.63N (mouse) = mδ-OR-K108^2.63N (mouse) (UniProt P32300); assay: MST
[4] = molecular target: mouse δ-opioid receptor, wild type (mouse) (UniProt P32300); assay: MST

CC(C)[C@@H](CN1CC[C@@](C)(c2cccc(O)c2)[C@@H](C)C1)NC(=O)[C@H]1Cc2ccc(O)cc2CN1 [JDTic]
selectivity for hκ-OR (hκ-OR): more than 1000 fold

CN1CC[C@]23c4c5ccc(O)c4O[C@H]2[C@@H](O)C=C[C@H]3[C@H]1C5 [morphine]
effect of ZnCl2 on agonist activation (control) ([1]; 1 mmol/L ZnCl2, WT mδ-OR, mδ-OR-Q190^ECL2H, mδ-OR-Q201^ECL2H): did not alter | effect of ZnCl2 on agonist activation (control) ([1]; 3 mmol/L ZnCl2, mδ-OR-S45^N-terminalH, mδ-OR-E112^ECL1H): did not alter | agonist-induced activation of mutants (mμ-OR mutants): significant reductions | change in potency for mδ-OR (mδ-OR mutants; mutations of K108^2.63 to Ala or Asn): increased the potency | agonist-induced activation of mutants (mδ-OR mutants; mδ-OR mutations at D^3.32, Y^3.33, V^5.43, I^6.51 (Fig. 5H)): significant reductions

CC[C@H](C)[C@H](NC(=O)[C@H](C)NC(=O)[C@H](CC(N)=O)NC(=O)[C@H](CCCCN)NC(=O)[C@H](Cc1ccccc1)NC(=O)[C@H](CC(C)C)NC(=O)[C@@H](NC(=O)[C@@H](NC(=O)[C@H](CC(C)C)NC(=O)[C@@H]1CCCN1C(=O)[C@@H](NC(=O)[C@H](CCC(N)=O)NC(=O)[C@H](CO)NC(=O)[C@H](CCCCN)NC(=O)[C@H](CCC(=O)O)NC(=O)[C@H](CO)NC(=O)[C@@H](NC(=O)[C@H](CCSC)NC(=O)[C@H](Cc1ccccc1)NC(=O)CNC(=O)CNC(=O)[C@@H](N)Cc1ccc(O)cc1)[C@@H](C)O)[C@@H](C)O)C(C)C)[C@@H](C)O)C(=O)N[C@H](C(=O)N[C@@H](CCCCN)C(=O)N[C@@H](CC(N)=O)C(=O)N[C@@H](C)C(=O)N[C@@H](Cc1ccc(O)cc1)C(=O)N[C@@H](CCCCN)C(=O)N[C@@H](CCCCN)C(=O)NCC(=O)N[C@@H](CCC(=O)O)C(=O)O)[C@@H](C)CC [β-endorphin]
preference between μ-OR and δ-OR (μ-OR over δ-OR): no discernible preference | EC50 (δ/μ^N-terminal Chimera): 0.0103 ± 0.0009 µM

Leu-enkephalin
maximum currents vs wild-type receptor (mδ-OR and its variants): statistically indistinguishable from wild-type receptor

deltorphin
selectivity for δ-OR (δ-OR): more than 1000 fold

endomorphin-1 (peptide)
Kd [2]: 0.00942 µM | Kd (mδ-OR-R292^ECL3E (mouse)): 0.408 µM | Kd (mδ-OR-R291^ECL3A (mouse)): 0.344 µM | Kd [3]: 0.00103 µM | Kd (mδ-OR-K108^2.63N (mouse)): 0.299 µM | Kd [4]: 2.94 µM

endomorphin-2 [EM-2]
μ-OR selectivity over δ-OR (μ-OR over δ-OR): > 1500 fold
